Data on two compounds can be found in paper PMC6463023, “Epigenetic Changes at the Birc5 Promoter Induced by YM155 in Synovial Sarcoma” (Journal of Clinical Medicine, 2019).

In data set [1] the test system is survivin. Also on record: method as in PMID 20816704. The conditions noted are these: cited from earlier work.
For data set [2], the system named is NFκB binding to the BIRC5 promoter. As to the kind of experiment: ChIP-qPCR for NFκB at the BIRC5 promoter in HS-SY-II cells. The conditions noted are these: 0.2 μM YM155, 24 h, vs control, p = 0.32. The format is cell-based, human. The method, then:
Mouse tumors were pulverized in a Covaris tissueTUBE attached to a Covaris glass tube (13 × 65 mm) using a hammer and an aluminum block on dry ice. Samples were intermittently placed in liquid nitrogen to maintain molecular interactions. The powderized tissue was resuspended in PBS + protease inhibitors (Sigma, 11836153001, St. Louis, MO, USA) and fixed in 1% formaldehyde for 10 min at room temperature. The cross linking was quenched by adding 125 mM glycine. Samples were washed three times using cold PBS and cold centrifugation at 1000× g for 5 min. Similarly, cells can be fixed in 1% formaldehyde and washed while cells are still adherent to the bottom of the tissue culture dish. Cells in both cases were lysed using cold Farnham cell lysis buffer (5mM PIPES pH 8.0, 85 mM KCl, 0.5% NP-40) with protease inhibitors by incubating on ice for 10 min. Cells were collected and dounced with a glass tube and rod 20 times with a loose rod and 10 times with a tight rod. Samples were filtered through 70 μm filter and centrifuged at 1000× g for 10 min. The supernatant was removed and 1 mL of RIPA lysis buffer (1% NP-40, 0.5% Na deoxycholate, 0.1% SDS/PBS) was added for every 300 mg of tissue or 1 × 10^7 cells and incubated on ice for 10 min. Sonication proceeded in the following manner: 1 mL aliquots were sonicated with a 30 s on and 30 s off cycle for 8 cycles totaling 4 min of sonication time. […]
In general terms: In qPCR the cycle at which signal appears reflects the starting amount.

The test system of data set [3] is Birc5 promoter. Kind of data set: ChIP-qPCR of histone marks at the Birc5 promoter in treated mouse synovial sarcomas. The conditions noted are these: mouse synovial sarcomas treated 11 days, vs controls. In kind it is in vivo. As to the method:
(§1) Mice had tumors initiated at 1 month of age. Tumors developed for the next 6 months allowing tumor volumes to reach 500–1000 mm^3. Mice were then subjected to daily intraperitoneal injections of 20 mg/kg of YM155 for 11 days. One mouse with bilateral tumors was censored at day 7. Tumors were measured using digital calipers and volumes were calculated using the equation (L∗W^2)/2. A small portion of the tumor was fixed in 4% paraformaldehyde overnight and then embedded in paraffin. The rest of the tumor was flash frozen in liquid nitrogen and stored at −80 °C until further use.
Mouse tumors were pulverized in a Covaris tissueTUBE attached to a Covaris glass tube (13 × 65 mm) using a hammer and an aluminum block on dry ice. Samples were intermittently placed in liquid nitrogen to maintain molecular interactions. The powderized tissue was resuspended in PBS + protease inhibitors (Sigma, 11836153001, St. Louis, MO, USA) and fixed in 1% formaldehyde for 10 min at room temperature. The cross linking was quenched by adding 125 mM glycine. Samples were washed three times using cold PBS and cold centrifugation at 1000× g for 5 min. Similarly, cells can be fixed in 1% formaldehyde and washed while cells are still adherent to the bottom of the tissue culture dish. […]

Data set [4] deals with HS-SY-II human synovial sarcoma cell line. Kind of data set: MTT viability assay, HS-SY-II cells, 24 h. The format is cell-based. The conditions noted are these: 24 h viability assay. As to the method:
(§2) The human SYO-1, Yamato, and HS-SY-II cell lines were received from Torsten Nielsen at the University of British Columbia. The MoJo cell line was developed as previously described from a consented patient’s synovial sarcoma. Each was maintained in Dulbecco’s modified Eagle medium (DMEM) with 10% fetal bovine serum (FBS) and tested for mycoplasma using MycoAlert Plus (Lonza, Walkersville, MD, USA) every 6 months. Cells were seeded in a 96-well tissue culture dish at 1 × 10^4 cells per well. Twenty-four hours after seeding, serial dilutions of YM155 were applied so that the final concentration ranged from 10 μM to 1 nM. Between 24 to 48 h, MTT at 5 mg/mL was applied, and the cells were allowed to incubate at 37 °C and 5% CO2 for 2.5 h. Formazan crystals were resolubilized in 10% SDS and 0.01 M HCl. Absorbance was measured at 570 nm and normalized to 650 nm. Caspase activity was measured using the Caspase-Glo 3/7 and Caspase-Glo 8 (Promega, G8090, and G8200) assay systems. The manufacturer’s instructions were followed for a 96-well plate assay.

The subject of data set [5] is Yamato human synovial sarcoma cell line. Kind of data set: MTT viability assay, Yamato cells, 48 h. In kind it is cell-based. The conditions noted are these: 48 h treatment. As to the method: as §2
On the technique in general: Tetrazolium assays rely on reduction of a dye to a coloured formazan, in cell work by metabolically active cells.

For a further data set, the system named is BIRC5. As to the kind of experiment: BIRC5 transcript level by PCR normalized to GAPDH. The format is cell-based, human. The conditions noted are these: HS-SY-II, 24 h, normalized to GAPDH mRNA; p = 0.0006.
For another data set, the system named is NFκB. Kind of data set: NFκB immunoblot of treated mouse synovial sarcomas. The format is in vivo. The conditions noted are these: mouse sarcomas after 11 days of YM155; p = 0.015. The method, then:
as §1
(§3) Protein was isolated from cells or tissues by incubating in a mild lysis buffer (10 mM Tris-HCl pH 8.1, 10 mM NaCl, 0.5% NP-40, and proteinase inhibitors). The fractions were clarified at 14,000 rpm for 10 min before loading 25–50 μg/sample for gel electrophoresis and transfer to PVDF membrane. Western blots were probed with the following primary antibodies: anti-Survivin (Cell Signaling Technology, 2808, 1:1000), anti-NFκB/p65 (Cell Signaling Technology, 8242, 1:800) anti-GAPDH (Proteintech, 10494-1-AP, 1:1000). The immunoblots were probed secondarily with goat anti-rabbit antibodies conjugated with horse radish peroxidase and bands were detected using Bio-Rad Gel Doc MP imaging station.

A short description of data set [6]: Body weight of mice during YM155 treatment. The format is in vivo, mouse. The conditions noted are these: 20 mg/kg daily for 11 days. As to the method: as §1
Data set [7] deals with SYO-1 human synovial sarcoma cell line. As to the kind of experiment: MTT viability assay, SYO-1 cells, 48 h. The format is cell-based. The conditions noted are these: 48 h treatment. The method, then:
as §2

For a further data set, the system named is caspase 3/7. Kind of data set: Caspase-Glo 3/7 activity in HS-SY-II cells. The format is cell-based, human. The conditions noted are these: 24 h incubation. As to the method:
(§4) Cells were seeded in a 96-well tissue culture dish at 1 × 10^4 cells per well. Twenty-four hours after seeding, serial dilutions of YM155 were applied so that the final concentration ranged from 10 μM to 1 nM. Between 24 to 48 h, MTT at 5 mg/mL was applied, and the cells were allowed to incubate at 37 °C and 5% CO2 for 2.5 h. Formazan crystals were resolubilized in 10% SDS and 0.01 M HCl. Absorbance was measured at 570 nm and normalized to 650 nm. Caspase activity was measured using the Caspase-Glo 3/7 and Caspase-Glo 8 (Promega, G8090, and G8200) assay systems. The manufacturer’s instructions were followed for a 96-well plate assay.

The subject of data set [8] is survivin. Kind of data set: Survivin immunoblot of treated mouse synovial sarcomas. The format is in vivo. The conditions noted are these: mouse sarcomas after 11 days of YM155; p = 0.034. The method, then:
as §1, §3
Background: In western blotting, separated proteins are transferred to a membrane and probed.

Details of data set [9]: method as in PMID 18824702. The conditions noted are these: patients, clinical trials; cited from earlier work.
Data set [10] has as its system Mojo human synovial sarcoma cell line. As to the kind of experiment: MTT viability assay, MoJo cells, 48 h. In kind it is cell-based. The conditions noted are these: 48 h treatment. The method, then:
as §2

For data set [11], the system named is BIRC5 promoter. Kind of data set: ChIP-qPCR of histone marks at the BIRC5 promoter in HS-SY-II cells. In kind it is cell-based, human. The conditions noted are these: 0.2 μM YM155, 24 h, vs controls. The method, then:
Mouse tumors were pulverized in a Covaris tissueTUBE attached to a Covaris glass tube (13 × 65 mm) using a hammer and an aluminum block on dry ice. Samples were intermittently placed in liquid nitrogen to maintain molecular interactions. The powderized tissue was resuspended in PBS + protease inhibitors (Sigma, 11836153001, St. Louis, MO, USA) and fixed in 1% formaldehyde for 10 min at room temperature. The cross linking was quenched by adding 125 mM glycine. Samples were washed three times using cold PBS and cold centrifugation at 1000× g for 5 min. Similarly, cells can be fixed in 1% formaldehyde and washed while cells are still adherent to the bottom of the tissue culture dish. Cells in both cases were lysed using cold Farnham cell lysis buffer (5mM PIPES pH 8.0, 85 mM KCl, 0.5% NP-40) with protease inhibitors by incubating on ice for 10 min. Cells were collected and dounced with a glass tube and rod 20 times with a loose rod and 10 times with a tight rod. Samples were filtered through 70 μm filter and centrifuged at 1000× g for 10 min. The supernatant was removed and 1 mL of RIPA lysis buffer (1% NP-40, 0.5% Na deoxycholate, 0.1% SDS/PBS) was added for every 300 mg of tissue or 1 × 10^7 cells and incubated on ice for 10 min. Sonication proceeded in the following manner: 1 mL aliquots were sonicated with a 30 s on and 30 s off cycle for 8 cycles totaling 4 min of sonication time. Sonicated samples were centrifuged at 1400 rpm for 5 min and the supernatant was kept for chromatin immunoprecipitation.
Dynabeads (Invitrogen, 11204D, Carlsbad, CA, USA) were washed in 0.5 mg/mL BSA/PBS three times on a magnet. Sonicated samples were precleared with 30 μL of beads for 1 h at 4 °C. After preclearing, 50 μL of the sample was set aside as the input DNA. Supernatants were transferred to a new tube and 5 μg of primary antibodies were added and incubated overnight at 4 °C. The following antibodies were used for immunoprecipitation. […]

Another data set relates to synovial sarcoma. As to the kind of experiment: YM155 in combination with BCL2 inhibitors.
In a further data set the test system is caspase 8. Kind of data set: Caspase-Glo 8 activity in HS-SY-II cells. The format is cell-based, human. The conditions noted are these: 24 h incubation. The method, then: as §4
In data set [12] the test system is synovial sarcomas expressing Rosa26-LSL-SS18-SSX2. Kind of data set: Tumor growth in genetically engineered mouse model of synovial sarcoma. The format is in vivo. As to the method:
Mouse experiments were conducted with the approval of the University of Utah’s Institutional Animal Care Committee in accordance with legal and ethical standards established by the National Research Council and published in the Guide for the Care and Use of Laboratory Animals (protocol # 14-01016). The previously described Rosa26-LSL-SS18-SSX2 mice were maintained on a mixed strain background, C57BL/6 and SvJ. Mice were genotyped with the following primers: Rosa26-LSL-SS18-SSX2 (F flox-[…], F wt–[…]-TGG, R-[…]). TATCre was dosed by 10 μL intramuscular injections at 50 μM at 1 month of age.
as §1
The control mice group with tumor was compared to the YM155 treated tumor group in a single factor ANOVA statistical test. For most comparisons between control and YM155 treated synovial sarcomas, Student’s t-tests were performed.

In the case of `Cc1ccc(S(=O)(=O)/C=C/C#N)cc1` [BAY 11-7082], the “survivin levels upon inhibition of NFκB” value with survivin [1] was “decrease in survivin levels”.

For the compound `COCCn1c2c([n+](Cc3cnccn3)c1C)C(=O)c1ccccc1C2=O` [YM155, sepantronium bromide], the “binding of NFκB to the BIRC5 promoter (ChIP-qPCR)” value in data set [2] is recorded as “unable to detect a difference”. In addition, the “H3K27me3 at the Birc5 promoter (ChIP-qPCR)” value with Birc5 promoter [3] (p = 0.045) and with BIRC5 promoter [11] was “elevated levels” in each case. The “H3K27ac at the Birc5 promoter (ChIP-qPCR)” value in the data set with Birc5 promoter [3] (p = 0.14) and in the data set on BIRC5 promoter [11] was “elevated levels” throughout. For the same compound, the EC50 (commonly the concentration that produces a half-maximal response) in data set [4] stood at 2640 ± 140 nM; in data set [5], 22 nM; in data set [7], 103 nM; in data set [10] it was 62 nM. Moreover, in the data set on BIRC5, the “reduction in normalized BIRC5 expression” value worked out at 39.5%. The “NFκB protein level (immunoblot, normalized to GAPDH)” value in the data set with NFκB is recorded as “striking increase”. In addition, the “weight loss in treated mice” value in data set [6] is reported as “no detectable weight loss”. Moreover, the “caspase 3/7 activity” value in the data set on caspase 3/7 was “increased with higher concentrations”. For the same compound, in the data set on survivin [8], the “survivin protein level (immunoblot, normalized to GAPDH)” value is on record as “striking decrease”. The “dose associated with adverse events” value in data set [9] is reported as “above 4.8 mg/m^2/day”. In addition, in the data set with BIRC5 promoter [11], the “H3K4me1 at the BIRC5 promoter (ChIP-qPCR)” value is “a decrease”. Besides, the “synergy of combination with BCL2 inhibitors” value in the data set with synovial sarcoma is reported as “minimally synergistic”. For the same compound, the “caspase 8 activity” value in the data set with caspase 8 is on record as “increased with higher concentrations”. The “decrease of tumor growth (mean) over 11 days” value in data set [12] (20 mg/kg daily intraperitoneal for 11 days, control tumors 1.78-fold increase, p = 0.028) was found to be 17%. Further, the “reduction in tumor volume compared to control treated mice” value in data set [12] (treated mice with synovial sarcoma) was found to be 50%.
